{"source": "patent US8455397B2", "about": "“Penoxsulam as a turfgrass, vineyard and orchard floor herbicide” (Dow AgroSciences, LLC, priority 2005, dated 2013)", "key": {"white clover (TRFRE) [1]": {"system": "white clover (TRFRE)", "assay": "Granule carrier/particle size, post emergence greenhouse study", "type": "in vivo, Trifolium repens L.", "conditions": "postemergent greenhouse", "experimental": "(§1) Greenhouse and field studies evaluated the effect of two granule carriers and two particles sizes on the postemergent broadleaf activity of penoxsulam. The two carriers were a 46-0-0 and 28-4-12 fertilizer blend and the particle sizes averaged 0.75 mm and 2.15 mm.\n(§2) Greenhouse studies were applied both post and pre-emergence to broadleaf weeds and sedge reared from seed or nutlet in 12.7″ (32.25 cm) by 8.8″ (22.35 cm) flats of a loam soil. Particle size and carrier were evaluated post emergence, carrier comparisons with the smaller particle size of 0.75 was evaluated pre-emergence. Stage of growth of species at post emergence application: PLAMA and TAROF in the 3 to 5 leaf stage, TRFRE in the 3rd tri-foliate stage and CYPES in the 3 to 4 leaf stage. Post emergence trial design was a replicated block, one species per flat, 3 replicate flats per treatment. Granule treatments were uniformly applied to individual flats on an area basis using a common hand-shaker method. Post emergence applications were made to the flat covering both soil and misted foliage. Trial was sub-irrigated daily, and watered over the top 1 time per week starting 7 days after application to simulate a natural rainfall event. Active weed growth was maintained throughout the study period. Weed control of each species in the post emergence study was assessed at 2, 3 and 4 weeks after treatment. Pre-emergence trial design was 2 species per flat, 4 replicate flats, block design. Pre-emergence applications were made to the soil surface using a common hand shaker method on an area basis. Overhead irrigation was maintained throughout the trial. Weed control of each species in the pre-emergence study was assessed at 2, 3, 4 and 5 weeks after application. Control was determined visually by comparing treated and untreated flats and scored on a 0 to 100 percent scale where 0 corresponds to no control and 100 corresponds to complete kill."}, "white clover (TRFRE) [2]": {"system": "white clover (TRFRE)", "assay": "Granule carrier comparison, pre-emergence greenhouse study", "type": "in vivo, Trifolium repens L.", "conditions": "pre-emergent greenhouse", "experimental": "as §1, §2"}, "[3]": {"system": "Cyperus esculentus (CYPES)", "assay": "Post emergence synergy greenhouse study, penoxsulam + commercial turf granules", "type": "in vivo", "conditions": "27 Days After Application", "experimental": "Post emergence greenhouse studies were conducted by applying a 0.14% w/w (weight for weight) penoxsulam loaded urea granule alone and in combination with commercial turf granules. The loading for the commercial granules is listed below Table XI. Greenhouse studies were applied on a kilogram of product per hectare basis (KG PR/Ha) post emergence to broadleaf weeds and sedge reared from seed or nutlet in 12.7″ (32.25 cm) by 8.8″ (22.35 cm) flats of a loam soil. Trial design was replicated block, one species per flat, 4 replicate flats per treatment. Post emergence applications were made to the flat covering both soil and misted foliage using a common hand-shaker method distributing the samples uniformly over the flat. Trial was sub-irrigated daily, and watered over the top 1 time per week starting 7 days after application to simulate a natural rainfall event. Active weed growth was maintained throughout the study period. Weed control was assessed at 2, 3 and 4 weeks after treatment. Control was determined visually by comparing treated and untreated flats and scored on a 0 to 100 percent scale where 0 corresponds to no control and 100 corresponds to complete kill."}, "[4]": {"system": "annual sowthistle (SONOL)", "assay": "Pre-emergence orchard floor weeds, greenhouse study", "type": "in vivo, Sonchus oleraceus", "conditions": "28 Days After Application", "experimental": "(§3) Greenhouse studies were conducted by seeding species in a loam soil and applying the herbicides to the soil surface using a Cornwall 5 milliliter glass syringe fitted with a TeeJet TN-3 nozzle on an area basis Immediately following herbicide application the pots were irrigated over the top to move the herbicides into the seeding zone. Pots were kept well irrigated throughout the trial. A percent visual weed control assessment was taken 4 weeks after application. Control was determined visually by comparing treated and untreated pots and scored on a 0 to 100 percent scale where 0 corresponds to no control and 100 corresponds to complete kill, or no emergence."}, "common groundsel (SENVU)": {"system": "common groundsel (SENVU)", "assay": "Pre-emergence orchard floor weeds, greenhouse study", "type": "in vivo, Senecio vulgaris", "conditions": "28 Days After Application", "experimental": "as §3"}, "common purslane (POROL)": {"system": "common purslane (POROL)", "assay": "Pre-emergence weed nursery field study", "type": "in vivo, Portulaca oleracea", "conditions": "weed nursery in the field, 27 Days After Application", "experimental": "(§4) Field studies were conducted in a non-fumigated weed nursery trial. Weed species were planted in single strips with a row planter at 36 centimeter spacing. Plot size was 3.05×9.2 meters, 4 replicate plots per treatment. Weed species were seeded at appropriate depths and later the same day pre-emergent applications were made to the soil surface. Liquid applications were made using a backpack sprayer calibrated to deliver 187 liters per hectare (L/ha). Applications were made in Fresno, Calif. in June. Sprinkler irrigation was applied at regular intervals throughout study period. Control of each weed species in the study site was made 4 weeks after treatment. Control was determined visually by comparing treated and untreated weeds and scored on a 0 to 100 percent scale where 0 corresponds to no control and 100 corresponds to complete kill or no emergence."}, "giant foxtail (SETFA)": {"system": "giant foxtail (SETFA)", "assay": "Pre-emergence weed nursery field study", "type": "in vivo, Setaria faberi", "conditions": "weed nursery in the field, 27 Days After Application", "experimental": "as §4"}, "junglerice (ECHCO)": {"system": "junglerice (ECHCO)", "assay": "Pre-emergence weed nursery field study", "type": "in vivo, Echinochloa colonum", "conditions": "weed nursery in the field, 27 Days After Application", "experimental": "as §4"}, "[5]": {"conditions": "carrier 28-4-12, particle size 0.75 mm, 5.6 gai/Ha"}, "[6]": {"conditions": "carrier 28-4-12, particle size 0.75 mm, 11.2 gai/Ha"}, "[7]": {"conditions": "carrier 28-4-12, particle size 0.75 mm, 22.4 gai/Ha"}, "[8]": {"conditions": "carrier 46-0-0, particle size 0.75 mm, 5.6 gai/Ha"}, "[9]": {"conditions": "carrier 46-0-0, particle size 0.75 mm, 11.2 gai/Ha"}, "[10]": {"conditions": "carrier 46-0-0, particle size 0.75 mm, 22.4 gai/Ha"}}, "data": [{"compound": "COc1cnc(OC)n2nc(NS(=O)(=O)c3c(OCC(F)F)cccc3C(F)(F)F)nc12", "note": "[Penoxsulam, 2-(2,2-difluoroethoxy)-N-(5,8-dimethoxy[1,2,4]triazolo[1,5-c]-pyrimidin-2-yl)-6-(trifluoromethyl)benzenesulfonamide]", "values": [{"measurement": "Percent Weed Control 27-30 DAA", "setting": "white clover (TRFRE) [1]; [5]", "result": 40, "unit": "%"}, {"measurement": "Percent Weed Control 27-30 DAA", "setting": "white clover (TRFRE) [1]; [6]", "result": 57, "unit": "%"}, {"measurement": "Percent Weed Control 27-30 DAA", "setting": "white clover (TRFRE) [1]; [7]", "result": 68, "unit": "%"}, {"measurement": "Percent Weed Control 27-30 DAA", "setting": "white clover (TRFRE) [1]; carrier 28-4-12, particle size 2.15 mm, 5.6 gai/Ha", "result": 12, "unit": "%"}, {"measurement": "Percent Weed Control 27-30 DAA", "setting": "white clover (TRFRE) [1]; carrier 28-4-12, particle size 2.15 mm, 11.2 gai/Ha", "result": 38, "unit": "%"}, {"measurement": "Percent Weed Control 27-30 DAA", "setting": "white clover (TRFRE) [1]; carrier 28-4-12, particle size 2.15 mm, 22.4 gai/Ha", "result": 58, "unit": "%"}, {"measurement": "Percent Weed Control 27-30 DAA", "setting": "white clover (TRFRE) [1]; [8]", "result": 22, "unit": "%"}, {"measurement": "Percent Weed Control 27-30 DAA", "setting": "white clover (TRFRE) [1]; [9]", "result": 58, "unit": "%"}, {"measurement": "Percent Weed Control 27-30 DAA", "setting": "white clover (TRFRE) [1]; [10]", "result": 72, "unit": "%"}, {"measurement": "Percent Weed Control 27-30 DAA", "setting": "white clover (TRFRE) [1]; carrier 46-0-0, particle size 2.15 mm, 5.6 gai/Ha", "result": 5, "unit": "%"}, {"measurement": "Percent Weed Control 27-30 DAA", "setting": "white clover (TRFRE) [1]; carrier 46-0-0, particle size 2.15 mm, 11.2 gai/Ha", "result": 33, "unit": "%"}, {"measurement": "Percent Weed Control 27-30 DAA", "setting": "white clover (TRFRE) [1]; carrier 46-0-0, particle size 2.15 mm, 22.4 gai/Ha", "result": 37, "unit": "%"}, {"measurement": "Percent Weed Control 35 DAA", "setting": "white clover (TRFRE) [2]; [5]", "result": 80, "unit": "%"}, {"measurement": "Percent Weed Control 35 DAA", "setting": "white clover (TRFRE) [2]; [6]", "result": 98, "unit": "%"}, {"measurement": "Percent Weed Control 35 DAA", "setting": "white clover (TRFRE) [2]; [7]", "result": 99, "unit": "%"}, {"measurement": "Percent Weed Control 35 DAA", "setting": "white clover (TRFRE) [2]; [8]", "result": 55, "unit": "%"}, {"measurement": "Percent Weed Control 35 DAA", "setting": "white clover (TRFRE) [2]; [9]", "result": 75, "unit": "%"}, {"measurement": "Percent Weed Control 35 DAA", "setting": "white clover (TRFRE) [2]; [10]", "result": 98, "unit": "%"}, {"measurement": "% Control Component A", "setting": "[3]; 2.4 kg Product/Ha of 0.14% w/w urea granule", "result": 16, "unit": "%"}, {"measurement": "% Control Component A", "setting": "[3]; 8.0 kg Product/Ha of 0.14% w/w urea granule", "result": 44, "unit": "%"}, {"measurement": "Pre-emergent Percent Mean Control", "setting": "[4]; 8.8 gai/Ha", "result": 72, "unit": "%"}, {"measurement": "Pre-emergent Percent Mean Control", "setting": "[4]; 17.5 gai/Ha", "result": 78, "unit": "%"}, {"measurement": "Pre-emergent Percent Mean Control", "setting": "[4]; 35 gai/Ha", "result": 82, "unit": "%"}, {"measurement": "Pre-emergent Percent Mean Control", "setting": "[4]; 70 gai/Ha", "result": 87, "unit": "%"}, {"measurement": "Pre-emergent Percent Mean Control", "setting": "common groundsel (SENVU); 8.8 gai/Ha", "result": 95, "unit": "%"}, {"measurement": "Pre-emergent Percent Mean Control", "setting": "common groundsel (SENVU); 17.5 gai/Ha", "result": 100, "unit": "%"}, {"measurement": "Pre-emergent Percent Mean Control", "setting": "common groundsel (SENVU); 35 gai/Ha", "result": 100, "unit": "%"}, {"measurement": "Pre-emergent Percent Mean Control", "setting": "common groundsel (SENVU); 70 gai/Ha", "result": 100, "unit": "%"}, {"measurement": "Pre-emergent Percent Mean Control", "setting": "common purslane (POROL); 8.8 gai/Ha", "result": 96, "unit": "%"}, {"measurement": "Pre-emergent Percent Mean Control", "setting": "common purslane (POROL); 17.5 gai/Ha", "result": 97, "unit": "%"}, {"measurement": "Pre-emergent Percent Mean Control", "setting": "common purslane (POROL); 35 gai/Ha", "result": 99, "unit": "%"}, {"measurement": "Pre-emergent Percent Mean Control", "setting": "common purslane (POROL); 70 gai/Ha", "result": 100, "unit": "%"}, {"measurement": "Pre-emergent Percent Mean Control", "setting": "giant foxtail (SETFA); 8.8 gai/Ha", "result": 70, "unit": "%"}, {"measurement": "Pre-emergent Percent Mean Control", "setting": "giant foxtail (SETFA); 17.5 gai/Ha", "result": 78, "unit": "%"}, {"measurement": "Pre-emergent Percent Mean Control", "setting": "giant foxtail (SETFA); 35 gai/Ha", "result": 88, "unit": "%"}, {"measurement": "Pre-emergent Percent Mean Control", "setting": "giant foxtail (SETFA); 70 gai/Ha", "result": 96, "unit": "%"}, {"measurement": "Pre-emergent Percent Mean Control", "setting": "junglerice (ECHCO); 8.8 gai/Ha", "result": 88, "unit": "%"}, {"measurement": "Pre-emergent Percent Mean Control", "setting": "junglerice (ECHCO); 17.5 gai/Ha", "result": 94, "unit": "%"}, {"measurement": "Pre-emergent Percent Mean Control", "setting": "junglerice (ECHCO); 35 gai/Ha", "result": 100, "unit": "%"}, {"measurement": "Pre-emergent Percent Mean Control", "setting": "junglerice (ECHCO); 70 gai/Ha", "result": 100, "unit": "%"}]}]}
